The supplement of paper PMC11061612

Legend:
Assay in all cases: Bliss excess, mean over the matrix (fraction); higher = more synergy
[1] = test system: AN3-CA (Endometrial Carcinoma)
Summary of the method: (§1)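 Cell lines in DMEM/F12 or RPMI with 10% FBS were plated in 1536-well plates, held 24 hours at 37°C, 5% CO2, then given two-drug dose matrices for 72 hours (DMSO typically 0.2%). Viability was read by CellTiter-Glo 2.0 luminescence and scaled as inhibition from 0 (vehicle wells) to 1 (blank wells). Combination Emax is the second-highest inhibition in the matrix; Bliss excess is observed combination effect minus expected EA + EB − EA·EB, EA and EB being single-agent effects.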

[2] = test system: BALL-1 (B-Lymphoblastic Leukemia)
Summary of the method: as §1

[3] = test system: Becker (Low Grade Glioma)
Summary of the method: as §1

[4] = test system: CML-T1 (Chronic Myelogenous Leukemia)
Summary of the method: as §1

[5] = test system: Calu-6 (Non-Small Cell Lung Carcinoma)
Summary of the method: as §1

[6] = test system: EB-3 (Burkitt's Lymphoma)
Summary of the method: as §1

ES-2 (Ovarian Carcinoma) = test system: ES-2 (Ovarian Carcinoma)
Summary of the method: as §1

[7] = test system: FLO-1 (Esophageal Adenocarcinoma)
Summary of the method: as §1

[8] = test system: KYSE-70 (Esophageal Squamous Cell Carcinoma)
Summary of the method: as §1

[9] = test system: LAMA-84 (Chronic Myelogenous Leukemia)
Summary of the method: as §1

[10] = test system: LOUCY (T-Lymphoblastic Leukemia)
Summary of the method: as §1

[11] = test system: NCI-H1563 (Lung Adenocarcinoma)
Summary of the method: as §1

[12] = test system: NCI-H1623 (Lung Adenocarcinoma)
Summary of the method: as §1

[13] = test system: NCI-H1755 (Lung Adenocarcinoma)
Summary of the method: as §1

[14] = test system: NCI-H196 (Small Cell Lung Carcinoma)
Summary of the method: as §1

[15] = test system: NCI-H810 (Non-Small Cell Lung Carcinoma)
Summary of the method: as §1

[16] = test system: RERF-LC-KJ (Lung Adenocarcinoma)
Summary of the method: as §1

[17] = test system: SJRH30 (Rhabdomyosarcoma)
Summary of the method: as §1

[18] = test system: SW684 (Other Solid Carcinomas)
Summary of the method: as §1

SMILES | Bliss excess [1] | Bliss excess [2] | Bliss excess [3] | Bliss excess [4] | Bliss excess [5] | Bliss excess [6] | Bliss excess (ES-2 (Ovarian Carcinoma)) | Bliss excess [7] | Bliss excess [8] | Bliss excess [9] | Bliss excess [10] | Bliss excess [11] | Bliss excess [12] | Bliss excess [13] | Bliss excess [14] | Bliss excess [15] | Bliss excess [16] | Bliss excess [17] | Bliss excess [18]
CN(C)CCCOc1ccc(-c2ccc3ncc4c(c3c2)n(C2CCOCC2)c(=O)n4C)cn1 [AZD0156] + O=C(c1cc(Cc2n[nH]c(=O)c3ccccc23)ccc1F)N1CCN(C(=O)C2CC2)CC1 [Olaparib] (first compound max 3 µM, partner max 3 µM) | 0.0263 | 0.158 | -0.0359 | 0.178 | 0.0096 | 0.0234 | 0.0327 | 0.0512 | -0.0054 | 0.167 | 0.125 | -0.0158 | 0.0126 | -0.0055 | -0.0505 | 0.0541 | -0.0459 | 0.0963 | -0.0388
C=CCn1c(=O)c2cnc(Nc3ccc(N4CCN(C)CC4)cc3)nc2n1-c1cccc(C(C)(C)O)n1 [AZD1775] + C1CN(CCC1(C(=O)N[C@@H](CCO)C2=CC=C(C=C2)Cl)N)C3=NC=NC4=C3C=CN4 [Capivasertib] (first compound max 3 µM, partner max 3 µM) | 0.0797 | 0.0591 | -0.0716 | -0.0178 | 0.0034 | -0.111 | -0.0209 | -0.0228 | -0.0193 | 0.0017 | 0.0157 | -0.0318 | -0.0576 | -0.0691 | -0.118 | -0.0404 | -0.0117 | -0.0065 | -0.0351
COc1nnc2ccc(N3CCC(c4ccc(OCCN5CCN(C)C(=O)[C@H]5C)cc4)CC3)nn12 [AZD5153] + C=CCn1c(=O)c2cnc(Nc3ccc(N4CCN(C)CC4)cc3)nc2n1-c1cccc(C(C)(C)O)n1 [AZD1775] (first compound max 1 µM, partner max 1 µM) | -0.0624 | -0.0234 | -0.0421 | -0.116 | -0.0511 | -0.114 | -0.0435 | 0.0001 | -0.0519 | -0.0311 | -0.0527 | 0.0474 | -0.0101 | -0.0088 | -0.0574 | -0.0578 | -0.0224 | -0.019 | -0.054
COc1nnc2ccc(N3CCC(c4ccc(OCCN5CCN(C)C(=O)[C@H]5C)cc4)CC3)nn12 [AZD5153] + CC1(C)CCC(CN2CCN(c3ccc(C(=O)NS(=O)(=O)c4ccc(NCC5CCOCC5)c([N+](=O)[O-])c4)c(Oc4cnc5[nH]ccc5c4)c3)CC2)=C(c2ccc(Cl)cc2)C1 [Venetoclax] (first compound max 1 µM, 7x7, partner max 1 µM) | -0.0347 | -0.0141 | -0.0487 | 0.0479 | -0.0949 | 0.0042 | -0.0677 | -0.005 | -0.0793 | -0.0361 | 0.0241 | -0.0496 | -0.0448 | -0.0416 | -0.0351 | -0.0474 | -0.0146 | -0.0536 | -0.0705
COc1nnc2ccc(N3CCC(c4ccc(OCCN5CCN(C)C(=O)[C@H]5C)cc4)CC3)nn12 [AZD5153] + CCN(CCO)CCCOc1ccc2c(Nc3cc(CC(=O)Nc4cccc(F)c4)[nH]n3)ncnc2c1 [AZD2811] (first compound max 1 µM, 7x7, partner max 1 µM) | -0.0375 | 0.0056 | 0.0134 | -0.0571 | -0.0563 | -0.0701 | 0.0089 | -0.0165 | -0.0265 | 0.0006 | 0.0305 | -0.0508 | -0.0117 | -0.0058 | -0.0285 | -0.0068 | -0.075 | 0.109 | -0.0767
COc1nnc2ccc(N3CCC(c4ccc(OCCN5CCN(C)C(=O)[C@H]5C)cc4)CC3)nn12 [AZD5153] + CN(CC[C@H](CSC1=CC=CC=C1)NC2=C(C=C(C=C2)S(=O)(=O)NC(=O)C3=CC=C(C=C3)N4CCC(CC4)[C@H](C5=CC=CC=C5C6=CC=C(C=C6)Cl)O)S(=O)(=O)C(F)(F)F)CCO [AZD4320] (first compound max 1 µM, 7x7, partner max 1 µM) | 0.0161 | -0.0008 | – | – | -0.0429 | – | 0.0277 | – | – | – | – | 0.0003 | -0.0087 | – | 0.0277 | – | -0.0066 | 0.0517 | –
COc1nnc2ccc(N3CCC(c4ccc(OCCN5CCN(C)C(=O)[C@H]5C)cc4)CC3)nn12 [AZD5153] + C[C@@H]1COCCN1C2=NC(=NC(=C2)C3(CC3)[S@](=N)(=O)C)C4=C5C=CNC5=NC=C4 [AZD6738] (first compound max 1 µM, 7x7, partner max 10 µM) | -0.0311 | 0.0119 | 0.0137 | -0.0011 | -0.0567 | -0.104 | 0.0316 | 0.0257 | -0.0358 | 0.0202 | -0.0232 | 0.0203 | -0.0247 | 0.0198 | 0.036 | -0.0236 | 0.0393 | 0.0588 | -0.042
COc1nnc2ccc(N3CCC(c4ccc(OCCN5CCN(C)C(=O)[C@H]5C)cc4)CC3)nn12 [AZD5153] + Cc1c2c(nn1C)CSCc1cc(n(C)n1)CSc1cc(c3ccccc3c1)OCCCc1c(C(=O)O)n(C)c3c-2c(Cl)ccc13 [AZD5991] (first compound max 1 µM, 7x7, partner max 1 µM) | -0.0205 | -0.0409 | -0.0815 | 0.0065 | -0.131 | -0.0048 | -0.0534 | -0.0352 | -0.0652 | 0.005 | 0.0187 | 0.0341 | 0.049 | -0.0785 | 0.0074 | 0.0448 | 0.006 | 0.0045 | -0.108
COc1nnc2ccc(N3CCC(c4ccc(OCCN5CCN(C)C(=O)[C@H]5C)cc4)CC3)nn12 [AZD5153] + Cn1cnc2c(F)c(Nc3ccc(Br)cc3Cl)c(C(=O)NOCCO)cc21 [Selumetinib] (first compound max 1 µM, 7x7, partner max 10 µM) | -0.0484 | -0.0274 | 0.0472 | -0.14 | 0.0533 | -0.0591 | 0.0345 | 0.0012 | 0.0097 | 0.0757 | 0.0484 | -0.085 | 0.0294 | 0.0053 | -0.0296 | -0.0224 | -0.113 | 0.0152 | -0.0187
NC1(C(=O)N[C@@H](CCO)c2ccc(Cl)cc2)CCN(c2ncnc3[nH]ccc23)CC1 [Capivasertib] + CC(=O)c1c(C)c2cnc(Nc3ccc(N4CCNCC4)cn3)nc2n(C2CCCC2)c1=O [Palbociclib] (first compound max 10 µM, 7x7, partner max 10 µM) | -0.0282 | 0.0245 | 0.0816 | 0.0054 | 0.0488 | -0.0328 | 0.0008 | -0.0218 | 0.0188 | 0.0059 | 0.0824 | -0.0456 | -0.0156 | 0.0036 | -0.0706 | -0.0346 | 0.0307 | -0.0084 | 0.0176
NC1(C(=O)N[C@@H](CCO)c2ccc(Cl)cc2)CCN(c2ncnc3[nH]ccc23)CC1 [Capivasertib] + CC(C)n1c(=O)n(C)c2cnc3cc(F)c(-c4ccc(OCCCN5CCCCC5)nc4)cc3c21 [AZD1390] (first compound max 10 µM, 7x7, partner max 0.3 µM) | -0.0057 | -0.0292 | -0.0136 | 0.003 | -0.0391 | 0.0022 | -0.0648 | -0.0398 | -0.063 | -0.0119 | -0.0101 | 0.0016 | -0.024 | -0.0407 | -0.0439 | -0.0543 | -0.0017 | -0.0373 | -0.0057
NC1(C(=O)N[C@@H](CCO)c2ccc(Cl)cc2)CCN(c2ncnc3[nH]ccc23)CC1 [Capivasertib] + CCN(CCO)CCCOc1ccc2c(Nc3cc(CC(=O)Nc4cccc(F)c4)[nH]n3)ncnc2c1 [AZD2811] (first compound max 10 µM, 7x7, partner max 1 µM) | 0.0151 | 0.0356 | -0.0136 | -0.0597 | -0.0009 | 0.0152 | -0.0018 | -0.0049 | -0.0902 | 0.0341 | -0.104 | 0.0242 | 0.0004 | -0.0289 | -0.0276 | -0.0195 | -0.0135 | 0.0224 | -0.0532
NC1(C(=O)N[C@@H](CCO)c2ccc(Cl)cc2)CCN(c2ncnc3[nH]ccc23)CC1 [Capivasertib] + COc1nnc2ccc(N3CCC(c4ccc(OCCN5CCN(C)C(=O)[C@H]5C)cc4)CC3)nn12 [AZD5153] (first compound max 10 µM, 7x7, partner max 1 µM) | 0.0778 | -0.0339 | 0.0414 | -0.0125 | -0.0081 | -0.0529 | 0.0199 | 0.0115 | -0.0109 | -0.0038 | 0.0912 | -0.0218 | 0.0638 | -0.0278 | 0.0227 | 0.0078 | -0.0437 | 0.0117 | 0.004
CC(=O)c1c(C)c2cnc(Nc3ccc(N4CCNCC4)cn3)nc2n(C2CCCC2)c1=O [Palbociclib] + CN(CC[C@H](CSC1=CC=CC=C1)NC2=C(C=C(C=C2)S(=O)(=O)NC(=O)C3=CC=C(C=C3)N4CCC(CC4)[C@H](C5=CC=CC=C5C6=CC=C(C=C6)Cl)O)S(=O)(=O)C(F)(F)F)CCO [AZD4320] (first compound max 10 µM, 7x7, partner max 1 µM) | 0.0108 | -0.0446 | – | – | 0.0279 | – | -0.0649 | – | – | – | – | -0.0292 | -0.0783 | – | -0.0489 | – | -0.0742 | -0.0467 | –
C[C@@H](c1ccc2nccn2c1)n1nnc2ncc(-c3cnn(C)c3)nc21 [Savolitinib] + CN(CC[C@H](CSC1=CC=CC=C1)NC2=C(C=C(C=C2)S(=O)(=O)NC(=O)C3=CC=C(C=C3)N4CCC(CC4)[C@H](C5=CC=CC=C5C6=CC=C(C=C6)Cl)O)S(=O)(=O)C(F)(F)F)CCO [AZD4320] (first compound max 1 µM, 7x7, partner max 1 µM) | -0.0575 | -0.0078 | – | – | -0.005 | – | -0.0383 | – | – | – | – | -0.0266 | -0.0231 | – | -0.0847 | – | -0.0454 | -0.0203 | –
